{
  "source": "patent US7473790B2",
  "about": "(Pfizer Inc., priority 2003, dated 2009)",
  "data": [
    {"biological_target": "T1, HCV polymerase (Hepatitis C virus genotype 1b, UniProt P26663)", "T1 construct": "2.5 pmoles (0.15 μg) HCV polymerase protein in a final volume of 75 μL", "T1 sequence (P26663 2420-3010)": "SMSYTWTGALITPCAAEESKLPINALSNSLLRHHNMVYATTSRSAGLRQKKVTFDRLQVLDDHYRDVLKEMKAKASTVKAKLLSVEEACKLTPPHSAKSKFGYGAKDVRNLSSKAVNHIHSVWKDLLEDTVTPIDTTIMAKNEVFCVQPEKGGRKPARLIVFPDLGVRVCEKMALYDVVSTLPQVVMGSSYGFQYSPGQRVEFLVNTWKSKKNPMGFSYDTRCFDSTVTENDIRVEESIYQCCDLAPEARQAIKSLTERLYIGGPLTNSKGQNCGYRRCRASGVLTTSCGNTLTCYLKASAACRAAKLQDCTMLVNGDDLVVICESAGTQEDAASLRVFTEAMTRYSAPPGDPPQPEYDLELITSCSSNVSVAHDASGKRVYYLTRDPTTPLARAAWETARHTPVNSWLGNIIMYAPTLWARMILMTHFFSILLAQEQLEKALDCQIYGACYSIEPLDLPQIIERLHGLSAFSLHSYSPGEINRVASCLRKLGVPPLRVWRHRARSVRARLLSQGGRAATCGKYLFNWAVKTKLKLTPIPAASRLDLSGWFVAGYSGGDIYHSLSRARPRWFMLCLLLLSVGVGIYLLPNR", "assay": "HCV polymerase primer/template-directed transcription assay (32P-GTP incorporation, filter binding)", "assay_type": "biochemical", "conditions": "recombinant HCV polymerase; 30 minutes at 30° C.; concentration giving 50% inhibition of polymerase-directed transcription; read-out: IC50", "summary_of_the_method": "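IC50s come from triplicate cpm, refit with an enzyme-concentration (30 nM) correction when under 200 nM. Reactions ran 30 min at 30° C in Tris pH 7.2 with MgCl2, 1 μM GTP spiked with α-32P-GTP, biotin-dG12 primer and poly(rC)300 template, with 1% DMSO. Incorporated label was collected on DE filtermats and counted.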", "units": {"IC50": "nM"}, "values": [
      {"smiles": "CC(C)(C#N)c1ccc(CCC2(C3CCCC3)CC(O)=C(Cc3nc4ncc(Cl)cn4n3)C(=O)O2)cc1Cl", "note": "(centres unmarked) [A(198), 2-(2-Chloro-4-{2-[5-(6-chloro-[1,2,4]triazolo[1,5-a]pyrimidin-2-ylmethyl)-2-cyclopentyl-4-hydroxy-6-oxo-3,6-dihydro-2H-pyran-2-yl]-ethyl}-phenyl)-2-methyl-propionitrile]", "IC50": 16},
      {"smiles": "Cc1cnc2nc(CC3=C(O)CC(CCc4ccc(C(C)(C)C#N)c(Cl)c4)(C4CCCC4)OC3=O)nn2c1", "note": "(centres unmarked) [A(199), 2-(2-Chloro-4-{2-[2-cyclopentyl-4-hydroxy-5-(6-methyl-[1,2,4]triazolo[1,5-a]pyrimidin-2-ylmethyl)-6-oxo-3,6-dihydro-2H-pyran-2-yl]-ethyl}-phenyl)-2-methyl-propionitrile]", "IC50": 10},
      {"smiles": "CCc1cc(CCC2(C3CCCC3)CC(O)=C(Cc3nc4ncccn4n3)C(=O)O2)c(OC)cc1O", "note": "(centres unmarked) [A(207), 6-cyclopentyl-6-[2-(5-ethyl-4-hydroxy-2-methoxyphenyl)ethyl]-4-hydroxy-3-([1,2,4]triazolo[1,5-a]pyrimidin-2-ylmethyl)-5,6-dihydro-2H-pyran-2-one]", "IC50": 4},
      {"smiles": "CC(C)(O)c1ccc(CCC2(C3CCCC3)CC(O)=C(Cc3nc4ncc(Cl)cn4n3)C(=O)O2)cc1F", "note": "(centres unmarked) [A(214), 3-[(6-chloro[1,2,4]triazolo[1,5-a]pyrimidin-2-yl)methyl]-6-cyclopentyl-6-{2-[3-fluoro-4-(1-hydroxy-1-methylethyl)phenyl]ethyl}-4-hydroxy-5,6-dihydro-2H-pyran-2-one]", "IC50": 38},
      {"smiles": "CC(C)(O)c1ccc(CCC2(C3CCCC3)CC(=O)CC(=O)O2)cc1F", "note": "(centres unmarked) [A(215), 6-cyclopentyl-6-{2-[3-fluoro-4-(1-hydroxy-1-methylethyl)phenyl]ethyl}dihydro-2H-pyran-2,4(3H)-dione]", "IC50": 4900},
      {"smiles": "Cc1cnc2nc(CC3=C(O)CC(CCc4ccc(C(C)(C)O)c(F)c4)(C4CCCC4)OC3=O)nn2c1", "note": "(centres unmarked) [A(216)]", "IC50": 45},
      {"smiles": "Cc1cc(C)n2nc(CC3=C(O)CC(CCc4ccc(C(C)(C)O)c(F)c4)(C4CCCC4)OC3=O)nc2n1", "note": "(centres unmarked) [A(217), 6-cyclopentyl-3-[(5,7-dimethyl[1,2,4]triazolo[1,5-a]pyrimidin-2-yl)methyl]-6-{2-[3-fluoro-4-(1-hydroxy-1-methylethyl)phenyl]ethyl}-4-hydroxy-5,6-dihydro-2H-pyran-2-one]", "IC50": 14},
      {"smiles": "CC(C)(O)c1ccc(CCC2(C3CCCC3)CC(O)=C(Cc3nc4ncccn4n3)C(=O)O2)cc1F", "note": "(centres unmarked) [A(220), 6-cyclopentyl-6-{2-[3-fluoro-4-(1-hydroxy-1-methylethyl)phenyl]ethyl}-4-hydroxy-3-([1,2,4]triazolo[1,5-a]pyrimidin-2-ylmethyl)-5,6-dihydro-2H-pyran-2-one]", "IC50": 172},
      {"smiles": "CC(C)(C#N)c1ccc(CCC2(C3CCCC3)CC(O)=C(Cc3cn4cccnc4n3)C(=O)O2)cc1F", "note": "(centres unmarked) [A(221), 2-(4-{2-[2-cyclopentyl-4-hydroxy-5-(imidazo[1,2-a]pyrimidin-2-ylmethyl)-6-oxo-3,6-dihydro-2H-pyran-2-yl]ethyl}-2-fluorophenyl)-2-methylpropanenitrile]", "IC50": 14},
      {"smiles": "CC(C)(C#N)c1ccc(CCC2(C3CCCC3)CC(O)=C(Cc3cnc4ncccn34)C(=O)O2)cc1F", "note": "(centres unmarked) [A(222), 2-(4-{2-[2-cyclopentyl-4-hydroxy-5-(imidazo[1,2-a]pyrimidin-3-ylmethyl)-6-oxo-3,6-dihydro-2H-pyran-2-yl]ethyl}-2-fluorophenyl)-2-methylpropanenitrile]", "IC50": 120},
      {"smiles": "Cc1cnc2nc(CC3=C(O)CC(CCc4ccc(O)c(CC(F)(F)F)c4)(C4CCCC4)OC3=O)nn2c1", "note": "(centres unmarked) [A(224), 6-cyclopentyl-4-hydroxy-6-{2-[4-hydroxy-3-(2,2,2-trifluoroethyl)phenyl]ethyl}-3-[(6-methyl[1,2,4]triazolo[1,5-a]pyrimidin-2-yl)methyl]-5,6-dihydro-2H-pyran-2-one]", "IC50": 4},
      {"smiles": "Cc1cc(C)n2nc(CC3=C(O)CC(CCc4ccc(O)c(CC(F)(F)F)c4)(C4CCCC4)OC3=O)nc2n1", "note": "(centres unmarked) [A(225), 6-cyclopentyl-3-[(5,7-dimethyl[1,2,4]triazolo[1,5-a]pyrimidin-2-yl)methyl]-4-hydroxy-6-{2-[4-hydroxy-3-(2,2,2-trifluoroethyl)phenyl]ethyl}-5,6-dihydro-2H-pyran-2-one]", "IC50": 3},
      {"smiles": "O=C1CC(=O)OC(CCc2ccc(O)c(CC(F)(F)F)c2)(C2CCCC2)C1", "note": "(centres unmarked) [A(228), 6-cyclopentyl-6-{2-[4-hydroxy-3-(2,2,2-trifluoroethyl)phenyl]ethyl}dihydro-2H-pyran-2,4(3H)-dione]", "IC50": 470},
      {"smiles": "CCc1cc(CCC2(C3CCCC3)CC(O)=C(Cc3nc4nc(C)ccn4n3)C(=O)O2)ccc1O", "note": "(centres unmarked) [A(229), 6-cyclopentyl-6-[2-(3-ethyl-4-hydroxyphenyl)ethyl]-4-hydroxy-3-[(5-methyl[1,2,4]triazolo[1,5-a]pyrimidin-2-yl)methyl]-5,6-dihydro-2H-pyran-2-one]", "IC50": 10},
      {"smiles": "CCc1cc(CCC2(C3CCCC3)CC(O)=C(Cc3nc4ncc(Br)cn4n3)C(=O)O2)ccc1O", "note": "(centres unmarked) [A(230), 3-[(6-bromo[1,2,4]triazolo[1,5-a]pyrimidin-2-yl)methyl]-6-cyclopentyl-6-[2-(3-ethyl-4-hydroxyphenyl)ethyl]-4-hydroxy-5,6-dihydro-2H-pyran-2-one]", "IC50": 11},
      {"smiles": "CCc1cc(CCC2(C3CCCC3)CC(O)=C(Cc3nc4ncc(Cl)cn4n3)C(=O)O2)cc(CC)c1O", "note": "(centres unmarked) [A(231), 3-[(6-chloro[1,2,4]triazolo[1,5-a]pyrimidin-2-yl)methyl]-6-cyclopentyl-6-[2-(3,5-diethyl-4-hydroxyphenyl)ethyl]-4-hydroxy-5,6-dihydro-2H-pyran-2-one]", "IC50": 6},
      {"smiles": "CCc1cc(CCC2(C3CCCC3)CC(O)=C(Cc3nc4nc(C)cc(C)n4n3)C(=O)O2)cc(CC)c1O", "note": "(centres unmarked) [A(232), 6-cyclopentyl-6-[2-(3,5-diethyl-4-hydroxyphenyl)ethyl]-3-[(5,7-dimethyl[1,2,4]triazolo[1,5-a]pyrimidin-2-yl)methyl]-4-hydroxy-5,6-dihydro-2H-pyran-2-one]", "IC50": 4},
      {"smiles": "CCc1cc(CCC2(C3CCCC3)CC(O)=C(Cc3nc4ncc(C)cn4n3)C(=O)O2)cc(CC)c1O", "note": "(centres unmarked) [A(233), 6-cyclopentyl-6-[2-(3,5-diethyl-4-hydroxyphenyl)ethyl]-4-hydroxy-3-[(6-methyl[1,2,4]triazolo[1,5-a]pyrimidin-2-yl)methyl]-5,6-dihydro-2H-pyran-2-one]", "IC50": 11},
      {"smiles": "CCc1cc(CCC2(C3CCCC3)CC(O)=C(Cc3nc4ncccn4n3)C(=O)O2)cc(CC)c1O", "note": "(centres unmarked) [A(234), 6-cyclopentyl-6-[2-(3,5-diethyl-4-hydroxyphenyl)ethyl]-4-hydroxy-3-([1,2,4]triazolo[1,5-a]pyrimidin-2-ylmethyl)-5,6-dihydro-2H-pyran-2-one]", "IC50": 11},
      {"smiles": "CCc1cc(CCC2(C3CCCC3)CC(=O)CC(=O)O2)cc(CC)c1O", "note": "(centres unmarked) [A(235), 6-cyclopentyl-6-[2-(3,5-diethyl-4-hydroxyphenyl)ethyl]dihydro-2H-pyran-2,4(3H)-dione]", "IC50": 890},
      {"smiles": "Cc1cc(C)n2nc(CC3=C(O)CC(CCc4ccc(C5(C#N)CCC5)c(F)c4)(C4CCCC4)OC3=O)nc2n1", "note": "(centres unmarked) [A(236), 1-(4-{2-[2-Cyclopentyl-5-(5,7-dimethyl-[1,2,4]triazolo[1,5-a]pyrimidin-2-ylmethyl)-4-hydroxy-6-oxo-3,6-dihydro-2H-pyran-2-yl]-ethyl}-2-fluoro-phenyl)-cyclobutanecarbonitrile]", "IC50": 3},
      {"smiles": "N#CC1(c2ccc(CCC3(C4CCCC4)CC(=O)CC(=O)O3)cc2F)CCC1", "note": "(centres unmarked) [A(237), 1-{4-[2-(2-Cyclopentyl-4,6-dioxo-tetrahydro-pyran-2-yl)-ethyl]-2-fluoro-phenyl}-cyclobutanecarbonitrile]", "IC50": 1000},
      {"smiles": "N#CC1(c2ccc(CCC3(C4CCCC4)CC(O)=C(Cc4nc5ncccn5n4)C(=O)O3)cc2F)CCC1", "note": "(centres unmarked) [A(238), 1-{4-[2-(2-Cyclopentyl-4-hydroxy-6-oxo-5-[1,2,4]triazolo[1,5-a]pyrimidin-2-ylmethyl-3,6-dihydro-2H-pyran-2-yl)-ethyl]-2-fluoro-phenyl}-cyclobutanecarbonitrile]", "IC50": 10},
      {"smiles": "Cc1cnc2nc(CC3=C(O)CC(CCc4ccc(C5(C#N)CCC5)c(F)c4)(C4CCCC4)OC3=O)nn2c1", "note": "(centres unmarked) [A(239), 1-(4-{2-[2-Cyclopentyl-4-hydroxy-5-(6-methyl-[1,2,4]triazolo[1,5-a]pyrimidin-2-ylmethyl)-6-oxo-3,6-dihydro-2H-pyran-2-yl]-ethyl}-2-fluoro-phenyl)-cyclobutanecarbonitrile]", "IC50": 3},
      {"smiles": "Cc1cnc2nc(CC3=C(O)CC(CCc4ccc(C(C)C#N)c(F)c4)(C4CCCC4)OC3=O)nn2c1", "note": "(centres unmarked) [A(240), 2-(4-{2-[2-Cyclopentyl-4-hydroxy-5-(6-methyl-[1,2,4]triazolo[1,5-a]pyrimidin-2-ylmethyl)-6-oxo-3,6-dihydro-2H-pyran-2-yl]-ethyl}-2-fluoro-phenyl)-propionitrile]", "IC50": 9},
      {"smiles": "CC(C#N)c1ccc(CCC2(C3CCCC3)CC(=O)CC(=O)O2)cc1F", "note": "(centres unmarked) [A(241), 2-{4-[2-(2-Cyclopentyl-4,6-dioxo-tetrahydro-pyran-2-yl)-ethyl]-2-fluoro-phenyl}-propionitrile]", "IC50": 800},
      {"smiles": "CCc1cnc2nc(CC3=C(O)CC(CCc4cc(F)c(C(C)(C)C#N)c(F)c4)(C4CCCC4)OC3=O)nn2c1", "note": "(centres unmarked) [A(252), 2-(4-{2-[2-Cyclopentyl-5-(6-ethyl-[1,2,4]triazolo[1,5-a]pyrimidin-2-ylmethyl)-4-hydroxy-6-oxo-3,6-dihydro-2H-pyran-2-yl]-ethyl}-2,6-difluoro-phenyl)-2-methyl-propionitrile]", "IC50": 10},
      {"smiles": "Cc1ccn2nc(CC3=C(O)CC(CCc4cc(F)c(C(C)(C)C#N)c(F)c4)(C4CCCC4)OC3=O)nc2n1", "note": "(centres unmarked) [A(253), 2-(4-{2-[2-Cyclopentyl-4-hydroxy-5-(5-methyl-[1,2,4]triazolo[1,5-a]pyrimidin-2-ylmethyl)-6-oxo-3,6-dihydro-2H-pyran-2-yl]-ethyl}-2,6-difluoro-phenyl)-2-methyl-propionitrile]", "IC50": 6},
      {"smiles": "Cc1cnc2nc(CC3=C(O)CC(CCc4cc(F)c(C5(C#N)CC5)c(F)c4)(C4CCCC4)OC3=O)nn2c1", "note": "(centres unmarked) [A(254)]", "IC50": 12}
    ]}
  ]
}
